In US6358883B1, “Pesticidal and parasiticidal use of 1-aryl-1-(substituted thio, sulfinyl and sulfonyl)-2-nitroethane compounds” (American Cyanamid Company, priority 1998, dated 2002):

Legend:
Assay type in all cases: in vivo
[1] = tested on: M. incognita (Root Knot Nematode) larvae; experiment: Evaluation of test compounds against M. incognita larvae in microtiter plate wells (movement score); details: larvae scored for movement after 20-24 hours; note: key: A score of '9' indicates inactive worms with a straight, sticklike morphology; A score of '8' indicates inactive worms with a limp, curled or curved morphology; A score of '7' indicates dead/paralyzed worms after 72 hours
How it was run: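 Newly emerged M. incognita larvae in S Medium (buffered salt solution), 50-65 worms per well, exposed to test compounds in sealed microtiter wells. Movement scored after 20-24 h incubation; wells with obviously dead/paralyzed larvae scored positive. A score of "7" denotes dead/paralyzed worms after […].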

[2] = tested on: C. elegans (Bristol strain); experiment: Evaluation of test compounds against C. elegans (motility, 96-well plate); set-up: key: 9=complete kill in 4 hours; 8=complete kill in 24 hours; 7=markedly reduced motility in approximately 95% of worms in 24 hours; 0=normal motility, same as controls; details: motility at 4 and 24 hours
How it was run: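 Bristol-strain C. elegans in Na buffer added to wells containing dried compound (applied in 80% acetone) and incubated at 20 °C. Motility of adults and larvae scored subjectively but semi-quantitatively under a dissecting microscope at 4 and 24 h after immersion, plates tapped before reading.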

[3] = tested on: Spodoptera eridania, 2nd instar larvae, southern armyworm (SAW); experiment: Southern armyworm (SAW) leaf dip test; set-up: key: 0 = no effect; 1 = 10-25% kill; 2 = 26-35% kill; 3 = 36-45% kill; 4 = 46-55% kill; 5 = 56-65% kill; 6 = 66-75% kill; 7 = 76-85% kill; 8 = 86-99% kill; 9 = 100% kill
How it was run: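 Compound is dissolved at 10,000 ppm in 35% acetone/water, then diluted with water. Lima bean leaves are dipped for 3 seconds, dried and placed with ten 2nd instar larvae on damp filter paper. Mortality, reduced feeding and molting interference are scored at 5 days.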

[4] = tested on: Diabrotica virgifera virgifera Leconte, 2nd instar western corn rootworm (WCR); experiment: Western corn rootworm (WCR) soil test; set-up: key: 0 = no effect; 1 = 10-25% kill; 2 = 26-35% kill; 3 = 36-45% kill; 4 = 46-55% kill; 5 = 56-65% kill; 6 = 66-75% kill; 7 = 76-85% kill; 8 = 86-99% kill; 9 = 100% kill
How it was run: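 Compound in 35% acetone/water applied to talc at 1.25 mg active ingredient per jar (about 50 kg/ha), solvent evaporated, then mixed with millet seed and moist soil. Ten 2nd-instar larvae per jar; mortality counted after 5 days, missing larvae scored dead.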

[5] = tested on: Tetranychus urticae (OP-resistant strain), 2-spotted spider mite (TSM); experiment: 2-spotted spider mite (TSM) plant dip test; set-up: key: 0 = no effect; 1 = 10-25% kill; 2 = 26-35% kill; 3 = 36-45% kill; 4 = 46-55% kill; 5 = 56-65% kill; 6 = 66-75% kill; 7 = 76-85% kill; 8 = 86-99% kill; 9 = 100% kill; details: mortality after 2 days
How it was run: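 OP-resistant mites (~100 per leaf) were transferred onto Sieva lima bean primary leaves about 2 h before treatment. Infested plants were dipped for 3 s in compound from a 10,000 ppm stock in 35% acetone/water, diluted with water. Mortality was counted after 2 days.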

[6] = tested on: Aphis gossypii, cotton aphid (CA); experiment: Cotton aphid (CA) cotyledon dip test; set-up: key: 0 = no effect; 1 = 10-25% kill; 2 = 26-35% kill; 3 = 36-45% kill; 4 = 46-55% kill; 5 = 56-65% kill; 6 = 66-75% kill; 7 = 76-85% kill; 8 = 86-99% kill; 9 = 100% kill; details: mortality after 5 days
How it was run: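 Cotyledon-stage cotton plants infested overnight via a heavily infested leaf, then dipped in test solution (compound in 35% acetone/water, diluted with water) and dried. Mortality counted after 5 days.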

[7] = tested on: Spodoptera eridania, eggs-southern armyworm (SAW-Eggs); experiment: Southern armyworm eggs (SAW-Eggs) treated diet test; set-up: key: 0 = no effect; 1 = 10-25% kill; 2 = 26-35% kill; 3 = 36-45% kill; 4 = 46-55% kill; 5 = 56-65% kill; 6 = 66-75% kill; 7 = 76-85% kill; 8 = 86-99% kill; 9 = 100% kill; details: mortality after 7 days
Method: (§1) Test solutions are prepared by dissolving the test compound in a 35% acetone in water mixture to give a concentration of 10,000 ppm. Subsequent dilutions are made with water as needed. Spodoptera eridania, Eggs-southern Armyworm and Diabrotica undecimpunctata howardi, Eggs-southern Corn Rootworm (SAW-Eggs) and (SCR-Eggs) Wells containing artificial diet are treated with the test solutions and dried. The appropriate insect eggs are then placed in the wells. The wells are covered with vented, adhesive, clear plastic covers. After 7 days, mortality counts are made. [table]

[8] = tested on: Diabrotica undecimpunctata howardi, eggs-southern corn rootworm (SCR-Eggs); experiment: Southern corn rootworm eggs (SCR-Eggs) treated diet test; set-up: key: 0 = no effect; 1 = 10-25% kill; 2 = 26-35% kill; 3 = 36-45% kill; 4 = 46-55% kill; 5 = 56-65% kill; 6 = 66-75% kill; 7 = 76-85% kill; 8 = 86-99% kill; 9 = 100% kill; details: mortality after 7 days
Method: as §1

Row | Compound | M. incognita (150 ppm) score [1] | Rating Against C. elegans (150 ppm) [2] | SAW (300 ppm) rating [3] | WCR (50 ppm) rating [4] | TSM (300 ppm) rating [5] | CA (300 ppm) rating [6] | SAW Eggs (300 ppm) rating [7] | SCR Eggs (1000 ppm) rating [8]
1 | CCOC(=O)CSC(C[N+](=O)[O-])c1ccccc1 (centres unmarked) [Example 6] | 9 | 8 | 0 | 7 (7 = 76-85% kill) | 0 | 0 | 0 | –
2 | CCCCOC(=O)CSC(C[N+](=O)[O-])c1ccccc1 (centres unmarked) [Example 7] | 9 | 8 | 0 | 0 | 0 | 0 | 0 | –
3 | CC(C)CCCCCOC(=O)CSC(C[N+](=O)[O-])c1ccccc1 (centres unmarked) [Example 8] | 0 | 0 | 0 | 0 | 0 | 0 | 0 | –
4 | CCCCC(CC)COC(=O)CSC(C[N+](=O)[O-])c1ccccc1 (centres unmarked) [Example 9] | 0 | 0 | 0 | 4 (4 = 46-55% kill) | 0 | 0 | 0 | –
5 | O=[N+]([O-])CC(SCc1ccccc1)c1ccccc1 (centres unmarked) [Example 10] | 0 | 0 | 0 | 0 | 0 | 0 | 0 | –
6 | CC(C)CCCCCOC(=O)CSC(C[N+](=O)[O-])c1ccc(F)cc1 (centres unmarked) [Example 11] | 0 | 0 | 0 | 0 | 0 | 0 | 0 | –
7 | CCCCC(CC)COC(=O)CSC(C[N+](=O)[O-])c1ccc(F)cc1 (centres unmarked) [Example 12] | 0 | 0 | 0 | 0 | 0 | 0 | 0 | –
8 | O=[N+]([O-])CC(SCc1ccccc1)c1ccc(F)cc1 (centres unmarked) [Example 13] | 0 | 8 | 0 | 0 | 0 | 7 (7 = 76-85% kill) | 0 | –
9 | CCCSC(C[N+](=O)[O-])c1ccc(F)cc1 (centres unmarked) [Example 14] | 0 | 0 | 0 | 0 | 0 | 0 | 0 | –
10 | CC(C)CCCCCOC(=O)CSC(C[N+](=O)[O-])c1ccccc1F (centres unmarked) [Example 42] | 0 | 0 | 0 | 6 (6 = 66-75% kill) | 0 | 0 | – | 9 (9 = 100% kill)
11 | CCCCC(CC)COC(=O)CSC(C[N+](=O)[O-])c1ccccc1F (centres unmarked) [Example 43] | 0 | 0 | 4 (4 = 46-55% kill) | 7 (7 = 76-85% kill) | 0 | 0 | – | 9 (9 = 100% kill)
12 | O=[N+]([O-])CC(SCc1ccccc1)c1ccccc1F (centres unmarked) [Example 44] | 0 | 7 | 5 (5 = 56-65% kill) | 4 (4 = 46-55% kill) | 0 | 0 | – | 0
13 | CCCSC(C[N+](=O)[O-])c1ccccc1F (centres unmarked) [Example 45] | 0 | 0 | 0 | 8 (8 = 86-99% kill) | 0 | 0 | – | 7 (7 = 76-85% kill)
14 | C=CCSC(C[N+](=O)[O-])c1ccccc1F (centres unmarked) [Example 46] | 9 | 7 | 1 (1 = 10-25% kill) | 9 (9 = 100% kill) | 0 | 0 | – | 0
15 | CCOC(=O)CSC(C[N+](=O)[O-])c1ccccc1Cl (centres unmarked) [Example 89] | 8 | 0 | 0 | 0 | 0 | 0 | – | 0
16 | CCCCOC(=O)CSC(C[N+](=O)[O-])c1ccccc1Cl (centres unmarked) [Example 90] | 8 | 7 | 0 | 0 | 3 (3 = 36-45% kill) | 0 | – | 0
17 | CC(C)CCCCCOC(=O)CSC(C[N+](=O)[O-])c1ccccc1Cl (centres unmarked) [Example 91] | 0 | 0 | 0 | 0 | 0 | 0 | – | 0
